# Laboratory results published in patent publication US10821115B2, “Compounds that inhibit Mcl-1 protein” (priority 2017, dated 2020).
# Experiments:
# [1] = test system: human multiple myeloma cell line, OPM-2; assay: Cell viability assay (OPM-2 10 FBS), CellTiter-Glo; type: cell-based; conditions: Homo sapiens, OPM-2, 16 h, read-out: OPM-2 10% FBS IC50 IP, OPM-2 cells, 10% FBS, 16 h incubation
# Procedure, shortened: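 IC50 values come from 4-parameter logistic fits of luminescence signals reflecting cell viability. Treatment lasted 16 h at 37 °C in complete medium with 10% FBS, starting from 3000 cells/well.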
# [2] = biological target: recombinant human Mcl-1 (residues 171-327) / Bim interaction (Homo sapiens (Human), UniProt Q07820); assay: biochemical; type: binding; conditions: 0.1 nM Mcl-1(171-327), 0.05 nM biotin-Bim (51-76); read-out: Mcl-1 HTRF IC50
# Chain of recombinant human Mcl-1 (residues 171-327) / Bim interaction (Q07820 171-327): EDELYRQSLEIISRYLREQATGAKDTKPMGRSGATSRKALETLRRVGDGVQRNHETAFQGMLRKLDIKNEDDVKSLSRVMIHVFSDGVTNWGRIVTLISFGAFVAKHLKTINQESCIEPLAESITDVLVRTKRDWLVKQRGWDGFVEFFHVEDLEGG
Compound,IC50 [1] [nM],IC50 [2] [nM]
COC[C@@H]1[C@@H](C)C/C=C/[C@](CN2CCN(C(C)C)CC2)(OC)[C@@H]2CC[C@H]2CN2C[C@@]3(CCCc4cc(Cl)ccc43)COc3ccc(cc32)C(=O)NS1(=O)=O [Example 173],323,0.173
"COC[C@@H]1[C@@H](C)C/C=C/[C@](CN2CCN(C(C)(C)C)CC2)(OC)[C@@H]2CC[C@H]2CN2C[C@@]3(CCCc4cc(Cl)ccc43)COc3ccc(cc32)C(=O)NS1(=O)=O [Example 174, (1S,3′R,6′R,7′S,8′E,11′S,12′S)-7′-((4-tert-butyl-1-piperazinyl)methyl)-6-chloro-7′-methoxy-12′-(methoxymethyl)-11′-methyl-3,4-dihydro-2H,15′H-spiro[naphthalene-1,22′-[20]oxa[13]thia[1,14]diazatetracyclo [14.7.2.0~3,6~.0~19,24~]pentacosa[8,16,18,24]tetraen]-15′-one 13′,13′-dioxide]",639,0.322
CCO[C@]1(CN2CCN(C3COC3)CC2)/C=C/C[C@H](C)[C@@H](COC)S(=O)(=O)NC(=O)c2ccc3c(c2)N(C[C@@H]2CC[C@H]21)C[C@@]1(CCCc2cc(Cl)ccc21)CO3 [Example 175],64,0.069
"COCC[C@@H]1[C@@H](C)C/C=C/[C@@](CN2CCN(C)CC2)(OC)[C@@H]2CC[C@H]2CN2C[C@@]3(CCCc4cc(Cl)ccc43)COc3ccc(cc32)C(=O)NS1(=O)=O [Example 178, (1S,3′R,6′R,7′R,8′E,11′S,12′R)-6-chloro-7′-methoxy-12′-(2-methoxyethyl)-11′-methyl-7′-((4-methyl-1-piperazinyl)methyl)-3,4-dihydro-2H,15′H-spiro[naphthalene-1,22′-[20]oxa[13]thia[1,14]diazatetracyclo [14.7.2.0~3,6~.0~19,24~]pentacosa[8,16,18,24]tetraen]-15′-one 13′,13′-dioxide]",71,0.177
"COCC[C@@H]1[C@@H](C)C/C=C/[C@](CN2CCN3CCOC[C@@H]3C2)(OC)[C@@H]2CC[C@H]2CN2C[C@@]3(CCCc4cc(Cl)ccc43)COc3ccc(cc32)C(=O)NS1(=O)=O [Example 179, (1S,3′R,6′R,7′S,8′E,11′S,12′R)-6-chloro-7′-((9aS)-hexahydropyrazino[2,1-c][1,4]oxazin-8(1H)-ylmethyl)-7′-methoxy-12′-(2-methoxyethyl)-11′-methyl-3,4-dihydro-2H,15′H-spiro[naphthalene-1,22′-[20]oxa[13]thia[1,14]diazatetracyclo [14.7.2.0~3,6~.0~19,24~]pentacosa[8,16,18,24]tetraen]-15′-one 13′,13′-dioxide]",36,0.072
"COCC[C@@H]1[C@@H](C)C/C=C/[C@](CN2CCN(C)CC2)(OC)[C@@H]2CC[C@H]2CN2C[C@@]3(CCCc4cc(Cl)ccc43)COc3ccc(cc32)C(=O)NS1(=O)=O [Example 180, (1S,3′R,6′R,7′S,8′E,11′S,12′R)-6-chloro-7′-methoxy-12′-(2-methoxyethyl)-11′-methyl-7′-((4-methyl-1-piperazinyl)methyl)-3,4-dihydro-2H,15′H-spiro[naphthalene-1,22′-[20]oxa[13]thia[1,14]diazatetracyclo [14.7.2.0~3,6~.0~19,24~]pentacosa[8,16,18,24]tetraen]-15′-one 13′,13′-dioxide]",81,0.106
"COCC[C@@H]1[C@@H](C)C/C=C/[C@@](CN2CCN3CCCC[C@@H]3C2)(OC)[C@@H]2CC[C@H]2CN2C[C@@]3(CCCc4cc(Cl)ccc43)COc3ccc(cc32)C(=O)NS1(=O)=O [Example 181, (1S,3′R,6′R,7′R,8′E,11′S,12′R)-6-chloro-7′-methoxy-12′-(2-methoxyethyl)-11′-methyl-7′-((9aR)-octahydro-2H-pyrido[1,2-a]pyrazin-2-ylmethyl)-3,4-dihydro-2H,15′H-spiro[naphthalene-1,22′-[20]oxa[13]thia[1,14]diazatetracyclo [14.7.2.0~3,6~.0~19,24~]pentacosa[8,16,18,24]tetraen]-15′-one 13′,13′-dioxide]",74,0.324
"COCC[C@@H]1[C@@H](C)C/C=C/[C@](CN2CCN3CCCC[C@@H]3C2)(OC)[C@@H]2CC[C@H]2CN2C[C@@]3(CCCc4cc(Cl)ccc43)COc3ccc(cc32)C(=O)NS1(=O)=O [Example 182, (1S,3′R,6′R,7′S,8′E,11′S,12′R)-6-chloro-7′-methoxy-12′-(2-methoxyethyl)-11′-methyl-7′-((9aR)-octahydro-2H-pyrido[1,2-a]pyrazin-2-ylmethyl)-3,4-dihydro-2H,15′H-spiro[naphthalene-1,22′-[20]oxa[13]thia[1,14]diazatetracyclo [14.7.2.0~3,6~.0~19,24~]pentacosa[8,16,18,24]tetraen]-15′-one 13′,13′-dioxide]",88,0.171
"COC[C@@H]1[C@@H](C)C/C=C/[C@@](CN2CCN3CCOC[C@@H]3C2)(OC)[C@@H]2CC[C@H]2CN2C[C@@]3(CCCc4cc(Cl)ccc43)COc3ccc(cc32)C(=O)NS1(=O)=O [Example 184, (1S,3′R,6′R,7′R,8′E,11′S,12′S)-6-chloro-7′-((9aS)-hexahydropyrazino[2,1-c][1,4]oxazin-8(1H)-ylmethyl)-7′-methoxy-12′-(methoxymethyl)-11′-methyl-3,4-dihydro-2H,15′H-spiro[naphthalene-1,22′-[20]oxa[13]thia[1,14]diazatetracyclo [14.7.2.0~3,6~.0~19,24~]pentacosa[8,16,18,24]tetraen]-15′-one 13′,13′-dioxide]",17,0.068
"CO[C@]1(CN2CCN3CCOC[C@@H]3C2)/C=C/C[C@H](C)[C@@H](C)S(=O)(=O)NC(=O)c2ccc3c(n2)N(C[C@@H]2CC[C@H]21)C[C@@]1(CCCc2cc(Cl)ccc21)CO3 [Example 185, (1S,3′R,6′R,7′R,8′E,11′S,12′R)-6-chloro-7′-((9aS)-hexahydropyrazino[2,1-c][1,4]oxazin-8(1H)-ylmethyl)-7′-methoxy-11′,12′-dimethyl-3,4-dihydro-2H,15′H-spiro[naphthalene-1,22′-[20]oxa[13]thia[1,14,25]triazatetracyclo [14.7.2.0~3,6~.0~19,24~]pentacosa[8,16,18,24]tetraen]-15′-one 13′,13′-dioxide]",1060,0.17
"CO[C@]1(CN2CCN3CCCC[C@@H]3C2)/C=C/C[C@H](C)[C@@H](C)S(=O)(=O)NC(=O)c2ccc3c(n2)N(C[C@@H]2CC[C@H]21)C[C@@]1(CCCc2cc(Cl)ccc21)CO3 [Example 186, (1S,3′R,6′R,7′R,8′E,11′S,12′R)-6-chloro-7′-methoxy-11′,12′-dimethyl-7′-((9aR)-octahydro-2H-pyrido[1,2-a]pyrazin-2-ylmethyl)-3,4-dihydro-2H,15′H-spiro[naphthalene-1,22′-[20]oxa[13]thia[1,14,25]triazatetracyclo [14.7.2.0~3,6~.0~19,24~]pentacosa[8,16,18,24]tetraen]-15′-one 13′,13′-dioxide]",431,0.255
